# Reference: patent US7834152B2, “Antagonists of interleukin-15” (Beth Israel Deaconess Medical Center, Inc., priority 1996, dated 2010)
# “Also recorded” adds a separate entry of the source. Like-named read-outs stand apart in the source and are kept apart here.
# Key:
# [1] = tested on: PHA-activated PBMCs; assay: Proliferative response to IL-2 or IL-15 of PBMCs pre-treated with immunosuppressive drugs and PHA; conditions: cells pre-treated with PHA and drug, washed, cultured with IL-2 2 days
# [2] = tested on: human PBMCs
# [3] = tested on: BAF-BO3 cells transfected with pRcCMV-IL-2Rβ; assay: [3H]-TdR proliferation assay, BAF-BO3 cells expressing human IL-2Rβ; format: cell-based, murine; conditions: for cell proliferation ([3H]-TdR incorporation): cells expressing wild-type human IL-2Rβ subunit
# Protocol: (§1) The BAF-BO3 cell line is an IL-3-dependent, murine pro-B cell line. A BAF-BO3 cell line that was pre-selected for high expression of the IL-2Rα subunit was kindly provided by T. Taniguchi (Osaka, Japan; Hatakeyama et al., Cell 59:837, 1989). BAF-BO3 cells were transfected with vector control (pRcCMV-0) or cDNA encoding the human IL-2Rβ subunit cloned into pRcCMV (pRcCMV-IL-2Rβ), by electroporation at 350 volts and 500 μFarads using 20 μg of ScaI linearized plasmid. Transfected cells were selected in the presence of 1 mg/ml G418 and tested for the expression of the IL-2Rβ subunit by fluorescence activated cell sorting (FACS) analysis as described (Maslinski et al., Int. Immunol. 4:509, 1992; Hataleyama et al., Cell 59:837, 1989).
# IL-3 dependent BAF-BO3 cells, which constitutively express the IL-2Rγ subunit, were transfected with a control pRcCMV construct (pRcCMV-0) or a pRcCMV construct containing cDNA encoding the full-length human IL-2Rβ_subunit and the neo^r gene (pRcCMV-IL-2Rβ). G418 resistant clones were then selected. Cells that were selected in this way were used to test the biological activity of FLAG-HMK-IL-15. […] Cells were washed twice to remove the medium containing the growth factor IL-3, and starved for 16 hours in RPMI-1640 medium supplemented with 10% FCS, penicillin (0.5 U/ml), and streptomycin (0.5 μg/ml). Cells were then plated at 2×10^4 cells/well, stimulated with FLAG-HMK-IL-15, and cultured for 72 hours at 37° C. in an atmosphere containing 5% CO2. This was followed by a 14 hour “pulse” with 1 μCi of [^3H]-TdR. The BAF-BO3 cells were then harvested and cell-associated radioactivity was measured by scintillation counting as described above.
# In order to study the effect of various IL-15 related proteins, including the mutant polypeptides described above, on the proliferation of BAF-BO3 cells, the following experiment was performed in vitro. BAF-BO3 cells were transfected in culture with DNA from either pRcCMV-IL-2Rβ or pRcCMV-0.
# [4] = molecular target: T1, IL-15Rα subunit (Homo sapiens, UniProt Q13261); assay: Cross-linking of [32P]-FLAG-HMK-IL-15 to PHA-activated PBMCs (DSS, SDS-PAGE, autoradiography); format: binding
# T1 construct: endogenous in cells
# Protocol: After 72 hours in culture, PHA-activated PBMCs were washed twice in cold phosphate-buffered saline (PBS), and 10^7 cells/ml were incubated for 30 minutes at 4° C. in 400 μl of RMPI-1640 medium supplemented with 25 mM HEPES (pH 7.4), 10% FCS, penicillin (0.5 U/ml), and streptomycin (0.5 μg/ml). Supplemented RPMI-1640 medium (20 μl) containing 1 μg of recombinant human IL-15 as a control for non-specific binding or medium alone was then added, and the incubation was continued for 15 minutes before 20 μl of medium containing [^32P]-labeled FLAG-HMK-IL-15 (1 ng, 500,000 cpm) was added to each sample. After further incubation for 1 hour at 4° C., the cells were washed with PBS and resuspended in 250 μl of PBS. Disuccinimidyl suberate (DDS; 1 mM), a cross-linker, was added, and cross-linking was performed as described by Tsudo et al. (Proc. Natl. Acad. Sci. USA 83:9694, 1986). The cross-linked cells were collected by centrifugation, washed, solubilized with extraction buffer (2% Nonidet P-40, 0.14 M NaCl, 25 mM HEPES (pH 7.4), 1 mM phenyl-methylsulfonyl fluoride) and centrifuged. Proteins present in the supernatants of these cell lysates were separated by 8% SDS-PAGE under reducing conditions. An autoradiogram was developed from the dry gel after exposure at −70° C. overnight. […]
# [5] = tested on: PHA-activated human PBMCs; assay: [3H]-TdR proliferation assay, PHA-activated human PBMCs; format: cell-based; conditions: PHA-activated PBMCs re-stimulated with reagent
# Protocol: Peripheral blood mononuclear cells (1×10^6/ml) were stimulated with PHA (2 μg/ml) for 72 hours at 37° C. in RPMI-1640 medium supplemented with 10% FCS, penicillin, and streptomycin, as described above.
# In the next series of experiments, the FLAG-HMK-IL-15 fusion protein was tested in order to determine whether it could function as a biologically active growth factor.
# [6] = tested on: leukemia cells (MOLT-14, YT, HuT-102, 2A, 2B); assay: Flow cytometry staining of leukemic cell lines with FLAG-HMK-IL-15; format: binding
# Protocol: The cells treated were from the leukemic cell lines MOLT-14, YT, HuT-102, and from cell lines currently being established at Beth Israel Hospital (Boston, Mass.), and designated 2A and 2B. The cultured cells were washed and incubated with either medium alone (tracing alone) or with medium containing the FLAG-HMK-IL-15 polypeptide (tracing filled in). The cells were then incubated with the biotinylated anti-FLAG antibody and stained with RED670-conjugated streptavidin. The stained cells were analyzed by flow cytometry.
# The cells treated were obtained from the leukemic cell lines MOLT-14, YT, HuT-102, and from cell lines currently being established at Beth Israel Hospital (Boston, Mass.), and named 2A and 2B. The cultured cells were washed and incubated with either medium alone or with medium containing the FLAG-HMK-IL-15 wild-type polypeptide (FIG. 18). The cells were then incubated with the biotinylated anti-FLAG antibody and stained with RED670-conjugated streptavidin. The stained cells were analyzed by flow cytometry.
# [7] = tested on: BAF-BO3 cells transfected with pRcCMV-0; assay: [3H]-TdR proliferation assay, BAF-BO3 vector control cells; format: cell-based, murine; conditions: vector lacking IL-2Rβ chain sequences
# Protocol: as §1
# IL-3 dependent BAF-BO3 cells, which constitutively express the IL-2Rγ subunit, were transfected with a control pRcCMV construct (pRcCMV-0) or a pRcCMV construct containing cDNA encoding the full-length human IL-2Rβ_subunit and the neo^r gene (pRcCMV-IL-2Rβ). G418 resistant clones were then selected. Cells that were selected in this way were used to test the biological activity of FLAG-HMK-IL-15. […] The BAF-BO3 cells were then harvested and cell-associated radioactivity was measured by scintillation counting as described above. […]
# [8] = tested on: IL-15 binding sites on PHA-activated human PBMCs; assay: Flow cytometry staining of PHA-activated PBMCs (anti-FLAG biotinylated Ab, streptavidin-RED670)
# Protocol: Resting or PHA-activated PBMCs (3×10^5 cells/tube) were washed twice with ice-cold PBS/0.02% sodium azide and incubated in medium containing FLAG-HMK-IL-15 (0.1 μg/100 μl) or, as a control, in medium alone. The incubation was carried out on ice for 30 minutes. The cells were then washed with PBS and incubated for two sequential 30 minute periods at 4° C. with biotin-conjugated anti-FLAG monoclonal antibody (0.5 μg/100 μl) and streptavidin-RED670 (0.5 μg/100 μl). The cells were then counterstained with CD25-PE, CD14-PE, CD16-PE, CD122-PE, CD4-FITC, or CD8-FITC, as indicated. […] Cell surface phenotype was analyzed using FACScan (Becton/Dickinson, Calif.) and Cell Quest software.
# The FLAG-HMK-IL-15 fusion protein, biotinylated anti-FLAG antibody, and streptavidin-RED670 were employed to detect expression of IL-15 binding sites on human PBMCs by cytofluorometric analysis. […] The stained cells were analyzed by flow cytometry (FIG. 4A). […] Both activated CD4^+ and CD8^+ cells express IL-15α chains (FIG. 4C); Activation induced IL-15α chains were also detected on CD14^+ (monocyte/macrophage) cells and CD16^+ (natural killer) cells.
# PHA-activated PBMCs were washed and incubated with medium alone, or with the FLAG-HMK-IL-15 double mutant. […] The stained cells were analyzed by flow cytometry (FIG. 17).
# [9] = tested on: IL-2Rαγ+ BAF-BO3 cells that express mutant S− IL-2Rβ subunit; assay: Proliferation assay, BAF-BO3 cells expressing mutant S− IL-2Rβ subunit; format: cell-based, murine; conditions: IL-2Rβ lacking serine-rich region (S−), 38 hours
# Source text: Error bars indicate the mean±standard deviation.
# Therefore, the ability of IL-15 to induce the proliferation of IL-2Rαγ^+BAF-BO3 cells that express either the wild-type IL-2Rβ subunit or a mutant IL-2Rβ protein that lacks the serine rich region (S^−).
# T1 sequence (Q13261 31-267): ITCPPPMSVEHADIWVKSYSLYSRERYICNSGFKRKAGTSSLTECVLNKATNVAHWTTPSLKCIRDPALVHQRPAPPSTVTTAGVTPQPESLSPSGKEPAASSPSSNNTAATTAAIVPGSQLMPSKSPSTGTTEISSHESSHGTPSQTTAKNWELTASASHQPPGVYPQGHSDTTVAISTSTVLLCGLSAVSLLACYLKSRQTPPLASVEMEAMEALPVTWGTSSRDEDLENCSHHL
molecule,measurement,setting,value
C[C@@H]1C[C@H]2[C@@H]3CCC4=CC(=O)C=C[C@]4(C)[C@@]3(F)[C@@H](O)C[C@]2(C)[C@@]1(O)C(=O)CO [dexamethasone],proliferative response to IL-2,[1],not inhibited
O=c1c(-c2ccc(O)cc2)coc2cc(O)cc(O)c12 [genistein],cell viability,"[2]; genistein 10 μg/ml, 3 days of incubation",659±15 % of the control
CO[C@H]1C[C@@H]2CC[C@@H](C)[C@@](O)(O2)C(=O)C(=O)N2CCCC[C@H]2C(=O)O[C@H]([C@H](C)C[C@@H]2CC[C@@H](O)[C@H](OC)C2)CC(=O)[C@H](C)/C=C(\C)[C@@H](O)[C@@H](OC)C(=O)[C@H](C)C[C@H](C)/C=C/C=C/C=C/1C [rapamycin],cell viability,"[2]; human, 3 days, 10 ng/ml",8.5%±10%
"FLAG-HMK-IL-15 Q149D single mutant: IL-15 single mutant, glutamine at position 149 changed to aspartate, FLAG-HMK tagged",cell proliferation ([3H]-TdR incorporation),[3],stimulated cellular proliferation
FLAG-HMK-IL-15: IL-15 polypeptide having an N-terminus covalently bound to the 18 amino acid FLAG-HMK-sequence,binding to the IL-15Rα subunit on mitogen-activated PBMCs,"[4]; [32P]-labeled protein, DSS cross-linking, 4° C.",site specific binding
same,cell proliferation ([3H]-TdR incorporation),[5],proliferate in response to
same,cell proliferation ([3H]-TdR incorporation),[3],stimulates proliferation; also recorded: stimulated cellular proliferation
same,binding to leukemia cells,[6],bind leukemia cells
same,cell proliferation ([3H]-TdR incorporation),[7],"does not, however, stimulate the proliferation"
IL-15: recombinant human IL-15 obtained from PeproTech,competition of [32P]-FLAG-HMK-IL-15 cross-linked band,[4]; molar excess of competitor,failed to detect
same,blocking of FLAG-HMK-IL-15 binding to PHA activated PBMCs,[8]; molar excess of competitor,blocked
same,cell proliferation,[9],neither cytokine is able to stimulate
same,cell proliferation ([3H]-TdR incorporation),[3],stimulate the proliferation; also recorded: stimulated cellular proliferation
"double mutant IL-15: human IL-15 protein bearing a double mutation (Q149D; Q156D), FLAG-HMK tagged",binding to PHA-activated human PBMCs,[8]; flow cytometry,bind PHA-activated human PBMCs
same,inhibition of BAF-BO3 proliferation,"[3]; IL-15 + double mutant, 30 μl (approximately 50 μg/ml) versus 20 μL of the same concentration",inhibited proliferation more completely
same,cell proliferation ([3H]-TdR incorporation),[3],did not proliferate
